The first assay concerns the target T1, Cannabinoid-1 receptor (CB1R) (Rattus norvegicus, UniProt P20272).
T1 construct: The tissue obtained from the brain of SD rats was homogenized; from tissue; host or cells: brain of SD rats (membrane pellet of the homogenate)
As to the kind of experiment: Cannabinoid-1 receptor (CB1R) binding affinity assay ([3H]CP-55940, rat CB-1 receptor binding protocol). To be noted: IC50(nM), brain tissue of SD rats, [3H]CP-55940, 30° C. 60 min. The method, then: The tissue obtained from the brain of SD rats was homogenized with a Dounce homogenate system in TME (50 mM Tris, 3 mM MgCl2 and 1 mM EDTA, pH 7.4) at 4° C., and the homogenate was centrifuged at 48,000 g for 30 min. at 4° C. The pellet was resuspended in 5 ml of TME and the suspension was divided into aliquots and stored at −70° C. until its use in the following assay.
The tissue concentrations were determined by Bradford protein analysis, and 148 μl of brain tissue of the required concentration was added to the plate. The plate was covered and placed in a 30° C. incubator for 60 min, and then transformed on GF/B filtermat pretreated in polyethylenimine (PEI) using a cell harvester. Each filter was washed five times and dried at 60° C. for 1 hr. Then, the degree of radioactivity retained by the filter was measured using Wallac Microbeta™ (PerkinElmer Life Sciences, Inc., Massachusetts, U.S.A.) and the activity of the compound for inhibiting CB1 receptor was determined therefrom.
T1 sequence (P20272 whole entry): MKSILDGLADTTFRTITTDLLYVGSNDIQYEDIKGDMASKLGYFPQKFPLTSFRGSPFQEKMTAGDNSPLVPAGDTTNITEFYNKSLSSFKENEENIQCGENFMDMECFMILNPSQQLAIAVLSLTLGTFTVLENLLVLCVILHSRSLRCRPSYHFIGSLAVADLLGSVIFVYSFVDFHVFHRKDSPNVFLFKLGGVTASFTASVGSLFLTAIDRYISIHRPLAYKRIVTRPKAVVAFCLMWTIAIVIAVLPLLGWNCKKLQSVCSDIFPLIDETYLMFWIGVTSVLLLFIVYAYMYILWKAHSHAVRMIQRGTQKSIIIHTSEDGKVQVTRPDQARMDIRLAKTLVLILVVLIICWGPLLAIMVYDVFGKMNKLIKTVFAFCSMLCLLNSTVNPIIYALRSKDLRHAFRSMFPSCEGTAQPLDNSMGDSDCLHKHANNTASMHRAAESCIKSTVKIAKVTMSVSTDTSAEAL
As a reminder, the IC50 is the point on the concentration scale where inhibition reaches its midpoint. Turning to `CCOC(C)(C)c1nnc(-c2nn(-c3ccc(Cl)cc3Cl)c(-c3ccc(Cl)cc3)c2C)o1` [Example 116, 2-(5-(4-chlorophenyl)-1-(2,4-dichlorophenyl)-4-methyl-1H-pyrazol-3-yl)-5-(2-ethoxypropan-2-yl)-1,3,4-oxadiazole], the IC50 stood at 23.9 nM.
As to `COc1ccc(C2(c3nnc(-c4nn(-c5ccc(Cl)cc5Cl)c(-c5ccc(Cl)cc5)c4C)o3)CC2)cc1` [Example 129, 2-(5-(4-chlorophenyl)-1-(2,4-dichlorophenyl)-4-methyl-1H-pyrazol-3-yl)-5-(1-(4-methoxyphenyl)cyclopropyl)-1,3,4-oxadiazole], the IC50 worked out at 9.46 nM.

Staying with this assay, now noted: brain tissue of SD rats, [3H]CP-55940, 30° C. 60 min; read-out: IC50.
As to `Cc1c(-c2nnc(C3(c4ccc(Cl)cc4)CC3)o2)nn(-c2ccc(Cl)cc2)c1-c1ccc(Cl)cc1` [Example 119, 2-(1,5-Bis(4-chlorophenyl)-4-methyl-1H-pyrazol-3-yl)-5-(1-(4-chlorophenyl)cyclopropyl)-1,3,4-oxadiazole], the IC50 was found to be 550 nM.
On the same count and under the same terms, the same measure for `Cc1c(-c2nnc(C3(c4ccc(Cl)cc4Cl)CC3)o2)nn(-c2ccc(Cl)cc2Cl)c1-c1ccc(Cl)cc1` [Example 130, 2-(5-(4-chlorophenyl)-1-(2,4-dichlorophenyl)-4-methyl-1H-pyrazol-3-yl)-5-(1-(2,4-dichlorophenyl)cyclopropyl)-1,3,4-oxadiazole]: 8.14 nM.
Same read-out and setting: the result for `Cc1ccc(C2(c3nnc(-c4nn(-c5ccc(Cl)cc5Cl)c(-c5ccc(Cl)cc5)c4C)o3)CC2)cc1` [Example 131, 2-(5-(4-chlorophenyl)-1-(2,4-dichlorophenyl)-4-methyl-1H-pyrazol-3-yl)-5-(1-p-tolylcyclopropyl)-1,3,4-oxadiazole] reads 7.26 nM; that for `CCc1c(-c2nnc(C3(c4ccc(Cl)cc4)CC3)o2)nn(-c2ccc(Cl)cc2Cl)c1-c1ccc(Cl)cc1` [Example 133, 2-(5-(4-chlorophenyl)-1-(2,4-dichlorophenyl)-4-ethyl-1H-pyrazol-3-yl)-5-(1-(4-chlorophenyl)cyclopropyl)-1,3,4-oxadiazole], 5.47 nM.
As to `Cc1c(-c2nnc(C3(C(F)(F)F)CCC3)o2)nn(-c2ccc(Cl)cc2Cl)c1-c1ccc(Cl)cc1` [Example 135, 2-(5-(4-chlorophenyl)-1-(2,4-dichlorophenyl)-4-methyl-1H-pyrazol-3-yl)-5-(1-(trifluoromethyl)cyclobutyl)-1,3,4-oxadiazole], the IC50 worked out at 16.3 nM.
On the same count and under the same terms, the same measure for `Cc1c(-c2nnc(CC(F)(F)F)o2)nn(-c2ccc(Cl)cc2Cl)c1-c1ccc(Cl)cc1` [Example 136, 2-(5-(4-chlorophenyl)-1-(2,4-dichlorophenyl)-4-methyl-1H-pyrazol-3-yl)-5-(2,2,2-trifluoroethyl)-1,3,4-oxadiazole]: 74.2 nM; for `Cc1c(-c2nnc(C3(c4ccc(Cl)cc4)CCC3)o2)nn(-c2cccc(Cl)c2Cl)c1-c1ccc(Cl)cc1` [Example 137, 2-(5-(4-chlorophenyl)-1-(2,3-dichlorophenyl)-4-methyl-1H-pyrazol-3-yl)-5-(1-(4-chlorophenyl)cyclobutyl)-1,3,4-oxadiazole]: 141 nM.
The same measure, in the same setting: the result for `COc1ccc(-c2c(C)c(-c3nnc(C4(c5ccc(Cl)cc5)CC4)o3)nn2-c2ccc(Cl)cc2Cl)cc1` [Example 138, 2-(1-(4-chlorophenyl)cyclopropyl)-5-(1-(2,4-dichlorophenyl)-5-(4-methoxyphenyl)-4-methyl-1H-pyrazol-3-yl)-1,3,4-oxadiazole] reads 10 nM; that for `CCc1c(-c2nnc(C3(c4ccc(Cl)cc4)CC3)o2)nn(-c2ccccc2Cl)c1-c1ccc(Cl)cc1` [Example 144, 2-(1-(2-chlorophenyl)-5-(4-chlorophenyl)-4-ethyl-1H-pyrazol-3-yl)-5-(1-(4-chlorophenyl)cyclopropyl)-1,3,4-oxadiazole], 2.16 nM; that for `CCc1c(-c2nnc(C3(c4ccc(Cl)cc4)CCC3)o2)nn(-c2ccccc2Cl)c1-c1ccc(Cl)cc1` [Example 147, 2-(1-(2-chlorophenyl)-5-(4-chlorophenyl)-4-ethyl-1H-pyrazol-3-yl)-5-(1-(4-chlorophenyl)cyclobutyl)-1,3,4-oxadiazole], 5.75 nM.

These data come from US7875647B2, “Heteroaryl-pyrazole derivatives as cannabinoid CB1 receptor antagonists” (Green Cross Corporation, priority 2006, dated 2011).
